In the NIST ThermoML archive (doi:10.1021/je8001255):

Assay: an = ratio of the nth substance listed, in mol/kg
Settings: 100 kPa, Liquid; for electrical conductivity: Alternating current cell with electrodes

O=S(=O)([O-])[O-].[Ni+2] [nickel monosulfate] + O
Settings | electrical conductivity, 278.15 K [S/m] | electrical conductivity, 283.15 K [S/m] | electrical conductivity, 288.15 K [S/m] | electrical conductivity, 293.15 K [S/m] | electrical conductivity, 298.15 K [S/m] | electrical conductivity, 303.15 K [S/m] | electrical conductivity, 308.15 K [S/m] | mass density, 298.15 K [kg/m3]
a1 = 0.006 | 0.0606 | 0.0696 | 0.079 | 0.0886 | 0.0984 | 0.108 | 0.119 | 998.02
a1 = 0.02566 | 0.192 | 0.221 | 0.25 | 0.28 | 0.31 | 0.341 | 0.372 | 1001.23
a1 = 0.04922 | 0.321 | 0.368 | 0.417 | 0.467 | 0.517 | 0.568 | 0.618 | 1005.09
a1 = 0.122 | 0.656 | 0.753 | 0.852 | 0.954 | 1.06 | 1.16 | 1.26 | 1017.09
a1 = 0.25 | 1.18 | 1.36 | 1.54 | 1.72 | 1.91 | 2.09 | 2.28 | 1038.54
a1 = 0.3674 | 1.55 | 1.78 | 2.01 | 2.25 | 2.5 | 2.75 | 2.99 | 1058.67
a1 = 0.4988 | 1.94 | 2.23 | 2.52 | 2.83 | 3.14 | 3.45 | 3.76 | 1081.77
a1 = 0.68 | 2.39 | 2.75 | 3.12 | 3.51 | 3.9 | 4.29 | 4.63 | 1114.8
a1 = 0.7969 | 2.64 | 3.04 | 3.45 | 3.88 | 4.31 | 4.75 | 5.19 | 1136.9
a1 = 1.022 | 2.99 | 3.46 | 3.94 | 4.44 | 4.95 | 5.47 | 5.99 | 1181.4
a1 = 1.156 | 3.13 | 3.62 | 4.13 | 4.67 | 5.22 | 5.77 | 6.34 | 1208.94
a1 = 1.394 | 3.21 | 3.73 | 4.29 | 4.87 | 5.47 | 6.08 | 6.7 | 1260.5
a1 = 1.601 | 3.11 | 3.64 | 4.2 | 4.8 | 5.42 | 6.06 | 6.7 | 1308
a1 = 1.783 | 2.89 | 3.42 | 3.99 | 4.59 | 5.22 | 5.86 | 6.53 | 1351.92

O=S(=O)([O-])[O-].[Co+2] [cobalt(II) sulfate] + O
Settings | electrical conductivity, 278.15 K [S/m] | electrical conductivity, 283.15 K [S/m] | electrical conductivity, 288.15 K [S/m] | electrical conductivity, 293.15 K [S/m] | electrical conductivity, 298.15 K [S/m] | electrical conductivity, 303.15 K [S/m] | electrical conductivity, 308.15 K [S/m] | mass density, 298.15 K [kg/m3]
a1 = 0.00551 | 0.0574 | 0.066 | 0.0749 | 0.084 | 0.0933 | 0.103 | 0.112 | 997.94
a1 = 0.02535 | 0.2 | 0.229 | 0.26 | 0.291 | 0.322 | 0.354 | 0.385 | 1001.16
a1 = 0.05135 | 0.338 | 0.388 | 0.439 | 0.491 | 0.544 | 0.597 | 0.649 | 1005.36
a1 = 0.1014 | 0.58 | 0.665 | 0.752 | 0.841 | 0.93 | 1.02 | 1.11 | 1013.44
a1 = 0.2522 | 1.19 | 1.36 | 1.54 | 1.72 | 1.9 | 2.09 | 2.27 | 1038.18
a1 = 0.4949 | 1.97 | 2.25 | 2.55 | 2.86 | 3.16 | 3.47 | 3.78 | 1079.59
a1 = 0.7706 | 2.63 | 3.03 | 3.43 | 3.85 | 4.27 | 4.7 | 5.12 | 1129.58
a1 = 0.9827 | 2.99 | 3.44 | 3.91 | 4.39 | 4.89 | 5.39 | 5.89 | 1170.36
a1 = 1.151 | 3.17 | 3.66 | 4.17 | 4.7 | 5.23 | 5.78 | 6.33 | 1204.34
a1 = 1.257 | 3.23 | 3.73 | 4.26 | 4.81 | 5.37 | 5.94 | 6.52 | 1227.86
a1 = 1.519 | 3.19 | 3.71 | 4.26 | 4.84 | 5.43 | 6.04 | 6.66 | 1286.2
a1 = 1.719 | 3.03 | 3.59 | 4.17 | 4.76 | 5.37 | 6 | 6.65 | 1331.86

O=S(=O)([O-])[O-].[Cu+2] [copper sulfate] + O
Settings | electrical conductivity, 278.15 K [S/m] | electrical conductivity, 283.15 K [S/m] | electrical conductivity, 288.15 K [S/m] | electrical conductivity, 293.15 K [S/m] | electrical conductivity, 298.15 K [S/m] | electrical conductivity, 303.15 K [S/m] | electrical conductivity, 308.15 K [S/m] | mass density, 298.15 K [kg/m3]
a1 = 0.00666 | 0.0666 | 0.0763 | 0.0863 | 0.0965 | 0.107 | 0.117 | 0.128 | 998.16
a1 = 0.02534 | 0.196 | 0.224 | 0.253 | 0.282 | 0.311 | 0.34 | 0.369 | 1001.26
a1 = 0.04942 | 0.319 | 0.365 | 0.412 | 0.459 | 0.506 | 0.553 | 0.598 | 1005.23
a1 = 0.09691 | 0.543 | 0.621 | 0.7 | 0.78 | 0.86 | 0.938 | 1.01 | 1013.09
a1 = 0.2535 | 1.17 | 1.34 | 1.51 | 1.68 | 1.85 | 2.02 | 2.19 | 1039.39
a1 = 0.3778 | 1.61 | 1.84 | 2.07 | 2.31 | 2.54 | 2.78 | 3 | 1060.88
a1 = 0.4881 | 1.95 | 2.23 | 2.52 | 2.81 | 3.1 | 3.39 | 3.68 | 1080.51
a1 = 0.6806 | 2.49 | 2.85 | 3.23 | 3.6 | 3.99 | 4.37 | 4.74 | 1115.98
a1 = 0.7935 | 2.75 | 3.15 | 3.57 | 4 | 4.43 | 4.87 | 5.29 | 1137.68
a1 = 0.9197 | 3 | 3.45 | 3.92 | 4.4 | 4.88 | 5.37 | 5.85 | 1162.72
a1 = 1.037 | 3.22 | 3.7 | 4.21 | 4.73 | 5.25 | 5.79 | 6.32 | 1186.79
a1 = 1.138 | 3.34 | 3.85 | 4.39 | 4.94 | 5.51 | 6.08 | 6.66 | 1208.14
a1 = 1.198 | 3.4 | 3.93 | 4.48 | 5.06 | 5.64 | 6.24 | 6.83 | 1220.58

O=S(=O)([O-])[O-].[Zn+2] [zinc sulfate] + O
Settings | electrical conductivity, 278.15 K [S/m] | electrical conductivity, 283.15 K [S/m] | electrical conductivity, 288.15 K [S/m] | electrical conductivity, 293.15 K [S/m] | electrical conductivity, 298.15 K [S/m] | electrical conductivity, 303.15 K [S/m] | electrical conductivity, 308.15 K [S/m] | mass density, 298.15 K [kg/m3]
a1 = 0.00628 | 0.0627 | 0.072 | 0.0816 | 0.0916 | 0.102 | 0.112 | 0.122 | 998.09
a1 = 0.02608 | 0.204 | 0.233 | 0.264 | 0.295 | 0.327 | 0.359 | 0.391 | 1001.41
a1 = 0.05064 | 0.333 | 0.382 | 0.432 | 0.483 | 0.534 | 0.585 | 0.638 | 1005.55
a1 = 0.1023 | 0.581 | 0.666 | 0.753 | 0.841 | 0.931 | 1.02 | 1.11 | 1014.14
a1 = 0.2077 | 1.02 | 1.17 | 1.32 | 1.48 | 1.63 | 1.79 | 1.94 | 1031.96
a1 = 0.4748 | 1.92 | 2.2 | 2.49 | 2.79 | 3.09 | 3.38 | 3.68 | 1078.96
a1 = 0.7453 | 2.62 | 3 | 3.4 | 3.81 | 4.23 | 4.65 | 5.07 | 1129.79
a1 = 0.9563 | 3.01 | 3.46 | 3.85 | 4.41 | 4.91 | 5.41 | 5.91 | 1171.99
a1 = 1.191 | 3.27 | 3.78 | 4.31 | 4.86 | 5.42 | 6 | 6.57 | 1221.75
a1 = 1.298 | 3.34 | 3.87 | 4.42 | 5 | 5.59 | 6.19 | 6.8 | 1250.72
a1 = 1.489 | 3.32 | 3.87 | 4.45 | 5.05 | 5.68 | 6.32 | 6.97 | 1293.66
a1 = 1.623 | 3.22 | 3.77 | 4.35 | 4.96 | 5.6 | 6.25 | 6.92 | 1326.7
a1 = 1.826 | 2.96 | 3.49 | 4.07 | 4.68 | 5.32 | 5.99 | 6.67 | 1377.89
